From patent publication US8309550B2, “Kinase inhibitors and their use as pharmaceutical agents” (Shanghai Genomics, Inc., priority 2011, dated 2012) come the findings set out here.

For one assay, the system named is A549 cells. Put plainly: 72 h MTT cytotoxicity assay A549. In kind it is cell-based. The following applies: Homo sapiens; A549, 72 hrs. The method, boiled down: (§1)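 Viability was measured by the MTT method after 72 hrs of compound treatment at 37° C. Seeding density was 4000 cells per well, and IC50 values came from sigmoid curve fitting of absorbance at 562 nm.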

Another assay relates to MDA-MB-231-luc. Put plainly: 72 h MTT cell viability MDA-MB-231-luc. Type of assay: cell-based. Conditions: Homo sapiens. The method in brief:
as §1

In another assay the test system is U2OS cells. Nature of the assay: 72 h MTT cytotoxicity assay U2OS. In kind it is cell-based. Conditions: Homo sapiens. The method in brief: as §1
The next assay relates to HeLa cells. Put plainly: 72 h MTT cytotoxicity assay HeLa. Type of assay: cell-based. The following applies: Homo sapiens. The method in brief: as §1
For orientation: Formazan colour is commonly taken as a measure of viable cells.

The test system of a further assay is MRC-5. Nature of the assay: 72 h MTT cell viability MRC-5 (normal lung). The following applies: Homo sapiens, MRC5; MRC-5, normal lung cell line; read-out: Cell Viability IC50 MRC-5. Type of assay: cell-based. An excerpt:
(§2) MIT cytotoxicity assay. The compounds of the invention were subjected to a standard cellular proliferation assay using human cell lines. HeLa cells (Human cervix adenocarcinoma cell line, ATCC NO, CCL-2); A549 cells (Human lung carcinoma cells line, ATCC NO, CCL-185); U2OS cells (Human osteosarcoma cell line, ATCC NO, HTB-96); Eca-109 cells (Human esophageal carcinoma cell line); HepG2 (Human hepatocellular liver carcinoma cell line, ATCC NO, HB-8065); K562 cells (Human chronic myelogenous leukemia cell line, ATCC NO, CCL-243); SK-MEL-28 (Human malignant melanoma cell line, ATCC NO, HTB-72); Molt-4 (Human acute lymphoblastic leukemia cell line, ATCC NO, CRL-1582); H460 (Human large cell lung cancer cell line, ATCC NO, HTB-177); MDA-MB-231 (Human breast adenocarcinoma cell line, ATCC NO, HTB-26); MCF7 (Human breast adenocarcinoma cell line, ATCC NO, HTB-22); ACHN (Human renal cell adenocarcinoma cell line, ATCC NO, CRL-1611); PC-3M (Human prostate adenocarcinoma cell line, ATCC NO CRL-1435); HL60 (Human acute promyelocytic leukemia cell line, ATCC NO, CCL-240); THP-1 (Human acute monocytic leukemia, ATCC NO, TIB-202); Jurkat (Human acute T cell leukemia cell line, ATCC NO, CRL-2063); HCT-116 (Human colorectal carcinoma cell line, ATCC NO, CCL-247); HT-29 (Human colorectal adenocarcinoma cell line, ATCC NO, HTB-38™); WI-38 (Human normal lung cell line, ATCC NO, CCL-75); MRC-5 (Human normal lung cell line, ATCC NO, CCL-171).
(§3) HepG2, MDA-MB-231, WI-38 and MRC-5 cells were obtained from Shanghai Institute of Cell Biology, Chinese Academy of Sciences (Shanghai 200031, China). A549, HeLa, K562, MCF7, ACHN, H460, U2OS, Eca-109, MCF7, HL60, THP-1, Jurkat, HCT-116, HT-29, PC-3M, SK-MEL-28, Molt-4, H460 and […] cells were purchased from ATCC (American Type Culture Collection, USA).
(§4) Standard 72 h MTT (thiazolye blue; 3-[4,5-dimethylthiazol-2-yl]-2,5-diphenyltetrazolium bromide) assays were performed. Briefly, the cell lines used in this study were recovered and cultured according to the conditions recommended. 4000 cells per well were seeded into 96-well plates according to doubling time and incubated overnight at 37° C. Compounds were prepared in DMSO and a ½ dilution series in 100 μl cell culture media, added to cells (in duplicates) with the final DMSO concentration of 0.025%, and incubated for 72 hrs at 37° C. MTT solution (5 mg/ml) was added at 10 μl per well and incubated in the dark at 37° C. for 4 hr. Culture medium and MTT solution was removed. MTT dye was solubilised with 100 μl per well of DMSO with agitation. Absorbance was read at 562 nm and data analyzed using Sigmoid curve-fitting software Origin 6.0 (MicroCal, LLC, USA) to determine IC50 value.

In the next assay the test system is K562 cells. Put plainly: 72 h MTT cytotoxicity assay K562. In kind it is cell-based. Conditions: Homo sapiens; K562, 72 hrs. The method, boiled down: as §1
The subject of the next assay is HT-29. Put plainly: 72 h MTT cell viability HT-29. Type of assay: cell-based. Conditions: Homo sapiens, read-out: Cell Viability IC50 HT-29.
Excerpt: as §2, §3, §4

In a further assay the test system is Eca-109 cells. Put plainly: 72 h MTT cytotoxicity assay Eca-109. In kind it is cell-based. The following applies: Homo sapiens; Eca-109, 72 hrs. The method, boiled down:
as §1

In a further assay the test system is Molt-4-luc. Nature of the assay: 72 h MTT cytotoxicity assay Molt-4-luc. In kind it is cell-based. Conditions: Homo sapiens. The method, boiled down:
as §1

Another assay relates to THP-1. Put plainly: 72 h MTT cell viability THP-1. Type of assay: cell-based. The following applies: Homo sapiens, THP-1; read-out: Cell Viability IC50 THP-1.
Excerpt: as §2, §3, §4

A further assay has as its system SK-MEL-28-luc. Nature of the assay: 72 h MTT cytotoxicity assay SK-MEL-28-luc. Conditions: Homo sapiens. In kind it is cell-based. The method in brief:
as §1

The subject of another assay is HCT 116. Nature of the assay: 72 h MTT cell viability HCT 116. The following applies: Homo sapiens. Type of assay: cell-based.
Excerpt: as §2, §3, §4

The subject of a further assay is Jurkat. Put plainly: 72 h MTT cell viability Jurkat. In kind it is cell-based. Conditions: Homo sapiens.
Excerpt: as §2, §3, §4

The next assay has as its system MCF7. Nature of the assay: 72 h MTT cytotoxicity assay MCF7. Type of assay: cell-based. The following applies: Homo sapiens; MCF7, 72 hrs. The method, boiled down:
as §1

The next assay has as its target CDK9T1 (Homo sapiens, UniProt P50750). Nature of the assay: Kinase assay CDK9T1 (Table I). Conditions: read-out: Kinase inhibition, IC50 CDK9T1. Type of assay: biochemical.
Setting [1] is: read-out: Cell Viability IC50 HCT 116.
[2] abbreviates: read-out: Cell Viability IC50 Jurkat.

Where two headings read alike, the source gives them in different places.

CDK9T1, sequence (P50750 whole entry): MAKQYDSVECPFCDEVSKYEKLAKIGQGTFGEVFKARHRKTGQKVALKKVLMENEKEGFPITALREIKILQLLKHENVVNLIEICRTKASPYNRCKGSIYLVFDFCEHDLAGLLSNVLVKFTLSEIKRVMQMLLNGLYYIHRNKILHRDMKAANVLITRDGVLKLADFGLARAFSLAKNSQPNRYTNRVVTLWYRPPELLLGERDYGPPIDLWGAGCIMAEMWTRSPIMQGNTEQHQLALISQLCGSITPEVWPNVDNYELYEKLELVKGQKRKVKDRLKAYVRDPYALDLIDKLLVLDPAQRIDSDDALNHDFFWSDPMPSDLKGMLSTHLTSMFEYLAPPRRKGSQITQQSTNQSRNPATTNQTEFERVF
CDK9T1, sequence (O60563 whole entry partner): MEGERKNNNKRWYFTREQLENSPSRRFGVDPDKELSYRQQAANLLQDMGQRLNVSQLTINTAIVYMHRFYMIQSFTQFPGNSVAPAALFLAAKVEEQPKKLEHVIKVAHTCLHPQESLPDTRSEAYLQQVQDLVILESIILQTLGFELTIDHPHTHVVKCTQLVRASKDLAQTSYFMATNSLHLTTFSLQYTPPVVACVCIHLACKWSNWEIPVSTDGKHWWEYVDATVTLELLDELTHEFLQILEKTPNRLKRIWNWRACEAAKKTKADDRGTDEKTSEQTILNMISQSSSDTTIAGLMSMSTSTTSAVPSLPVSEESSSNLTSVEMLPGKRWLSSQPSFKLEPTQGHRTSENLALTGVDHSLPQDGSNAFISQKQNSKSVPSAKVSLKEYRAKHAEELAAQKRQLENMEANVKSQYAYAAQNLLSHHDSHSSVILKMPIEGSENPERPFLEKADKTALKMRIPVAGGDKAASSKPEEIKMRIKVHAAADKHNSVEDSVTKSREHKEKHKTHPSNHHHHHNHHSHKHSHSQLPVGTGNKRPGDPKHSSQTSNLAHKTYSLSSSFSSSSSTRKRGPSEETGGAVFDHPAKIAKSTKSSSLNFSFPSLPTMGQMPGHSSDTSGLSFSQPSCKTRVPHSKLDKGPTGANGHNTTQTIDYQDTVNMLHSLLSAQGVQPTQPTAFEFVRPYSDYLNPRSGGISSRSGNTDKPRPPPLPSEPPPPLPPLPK

As usually defined, the IC50 is the concentration that inhibits the measured activity by half. As to `CCn1cc(-c2ccnc(Nc3cccc(C#N)c3)n2)c2cccnc21` [Compound 20, 3-(4-(1-Ethyl-1H-pyrrolo[2,3-b]pyridin-3-yl)pyrimidin-2-ylamino)benzonitrile], the IC50 in the assay on A549 cells was 3070 nM; with MDA-MB-231-luc it was 4.68 µM; with U2OS cells, > 10 µM; with HeLa cells, 5550 nM; with MRC-5, 15.1 µM; in the assay on K562 cells, 6.11 µM. In addition, the IC50 in the assay on HT-29 was 2930 nM; in the assay with Eca-109 cells it was > 10 µM; with Molt-4-luc, 3430 nM; in the assay with THP-1, 2080 nM; in the assay with SK-MEL-28-luc it was 7.79 µM; with HCT 116 (setting [1]) it was > 10000 nM. The IC50 was 3420 nM in the assay on Jurkat (setting [2]), > 10000 nM in the assay on MCF7 and 150 nM on CDK9T1.
Regarding `CCn1cc(-c2ccnc(Nc3cccc(S(N)(=O)=O)c3)n2)c2cccnc21` [Compound 18, 3-(4-(1-Ethyl-1H-pyrrolo[2,3-b]pyridin-3-yl)pyrimidin-2-ylamino)benzenesulfonamide], the IC50 amounted to 1210 nM in the assay with A549 cells; 3.3 µM with MDA-MB-231-luc; 3.07 µM in the assay with U2OS cells; 1700 nM with HeLa cells; 13.3 µM in the assay on MRC-5; 6.69 µM in the assay with K562 cells. Besides, the IC50 with HT-29 is 810 nM; in the assay on Eca-109 cells, 11.7 µM; in the assay with Molt-4-luc, 1050 nM; with THP-1 it was 5370 nM; in the assay on SK-MEL-28-luc it was 8.59 µM; in the assay on HCT 116 (HCT116, Table III, read-out: Cellular effect in mammalian cells IC50 HCT116), 2100 nM. Besides, the IC50 in the assay with Jurkat (Table III, read-out: Cellular effect in mammalian cells IC50 Jurkat) stood at 1310 nM; with MCF7 it was 710 nM; on CDK9T1, 14 nM.
Consider `CCCn1cc(-c2ccnc(Nc3cccc(S(N)(=O)=O)c3)n2)c2ccnc(Cl)c21` [Compound 96, 3-(4-(7-chloro-1-propyl-1H-pyrrolo[2,3-c]pyridin-3-yl)pyrimidin-2-ylamino)benzenesulfonamide], for which the IC50 was determined as 120 nM in the assay with A549 cells; 0.23 µM with U2OS cells; 150 nM with HeLa cells; 0.89 µM in the assay on MRC-5; 0.22 µM with K562 cells; 480 nM in the assay with HT-29. Besides, the IC50 in the assay on Eca-109 cells was > 10 µM; with Molt-4-luc, 220 nM; with THP-1, 360 nM; with SK-MEL-28-luc, 0.26 µM; in the assay with HCT 116 (setting [1]), 320 nM; in the assay on Jurkat (setting [2]) it was 220 nM. Moreover, the figures for the IC50 with MCF7 and at CDK9T1 were 250 nM and 8.6 nM, respectively.
